Experimental data published in ChEMBL document CHEMBL1201862, “PubChem BioAssay data set” (2004).
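Step 1: Grow cells in 96-well plates. Step 2: Expose to compound for 48 hours at 5 concentrations. Step 3: Interpolate endpoints linearly; if unreached, use highest concentration. GI50 marks 50% less growth.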 Calls of active or inactive are those of the source. No stated cut-off is given here; in the data, active = GI50 up to about 1.1 µM and inactive = higher.

Assays:
Assay in all cases: growth of human tumour cells (NCI), 48 h
HOP-92 = tested on: HOP-92
SN12C = tested on: SN12C
NCI-H23 = tested on: NCI-H23
KM12 = tested on: KM12
SNB-19 = tested on: SNB-19
T47D = tested on: T47D
SK-MEL-2 = tested on: SK-MEL-2
A498 = tested on: A498
PC-3 = tested on: PC-3
SW-620 = tested on: SW-620
U-251 = tested on: U-251
HCT-116 = tested on: HCT-116
SK-MEL-28 = tested on: SK-MEL-28
SNB-75 = tested on: SNB-75
LOX IMVI = tested on: LOX IMVI
OVCAR-8 = tested on: OVCAR-8
SK-MEL-5 = tested on: SK-MEL-5
Malme-3M = tested on: Malme-3M
HT-29 = tested on: HT-29
NCI-H522 = tested on: NCI-H522
DU-145 = tested on: DU-145
UO-31 = tested on: UO-31
COLO 205 = tested on: COLO 205
BT-549 = tested on: BT-549
SK-OV-3 = tested on: SK-OV-3
M14 = tested on: M14
SF-268 = tested on: SF-268
TK-10 = tested on: TK-10
SF-539 = tested on: SF-539
SF-295 = tested on: SF-295
MDA-N = tested on: MDA-N
CCRF-CEM = tested on: CCRF-CEM
EKVX = tested on: EKVX
UACC-257 = tested on: UACC-257
MOLT-4 = tested on: MOLT-4
786-0 = tested on: 786-0
MCF7 = tested on: MCF7
NCI-H460 = tested on: NCI-H460
NCI/ADR-RES = tested on: NCI/ADR-RES
CAKI-1 = tested on: CAKI-1
Hs-578T = tested on: Hs-578T
RXF 393 = tested on: RXF 393
ACHN = tested on: ACHN
NCI-H226 = tested on: NCI-H226
HCC 2998 = tested on: HCC 2998
HOP-62 = tested on: HOP-62
OVCAR-3 = tested on: OVCAR-3
MDA-MB-435 = tested on: MDA-MB-435
OVCAR-5 = tested on: OVCAR-5
HCT-15 = tested on: HCT-15
K562 = tested on: K562
MDA-MB-231 = tested on: MDA-MB-231
SR = tested on: SR
OVCAR-4 = tested on: OVCAR-4
UACC-62 = tested on: UACC-62
A549 = tested on: A549
HL-60 = tested on: HL-60
RPMI-8226 = tested on: RPMI-8226
IGROV-1 = tested on: IGROV-1

Measured: GI50

COc1ccc(/C=C(/C(=O)c2ccc(Cl)cc2)N2C=CC=CC2=C(C#N)C#N)cc1OC
active: Malme-3M 0.914 µM | NCI-H522 0.243 µM | CCRF-CEM 0.115 µM | MOLT-4 0.685 µM | K562 0.698 µM
2.17 µM: HCT-15
inactive: HOP-92 3.51 µM | SN12C 17.4 µM | NCI-H23 11.5 µM | KM12 19.1 µM | SNB-19 15.1 µM | T47D 4.06 µM | SK-MEL-2 15.3 µM | A498 14.9 µM | PC-3 2.74 µM | SW-620 1.91 µM | U-251 12.1 µM | HCT-116 2.06 µM | SK-MEL-28 3.4 µM | SNB-75 6.62 µM | LOX IMVI 3.39 µM | OVCAR-8 4.27 µM | SK-MEL-5 9.25 µM | HT-29 5.01 µM | DU-145 13.7 µM | UO-31 1.5 µM | COLO 205 1.58 µM | BT-549 7.85 µM | SK-OV-3 24.4 µM | M14 3.7 µM | SF-268 3.55 µM | TK-10 6.32 µM | SF-539 3.92 µM | SF-295 28.5 µM | MDA-N 4.55 µM | EKVX 2.75 µM | UACC-257 6 µM | 786-0 1.94 µM | MCF7 3.66 µM | NCI-H460 12.9 µM | NCI/ADR-RES 10.4 µM | CAKI-1 1.31 µM | Hs-578T 1.66 µM | RXF 393 2.03 µM | ACHN 3.31 µM | NCI-H226 17.8 µM | HCC 2998 1.99 µM | HOP-62 20.5 µM | OVCAR-3 3.72 µM | MDA-MB-435 3.89 µM | OVCAR-5 16.2 µM | MDA-MB-231 6.24 µM | SR 2.35 µM | OVCAR-4 6.58 µM | UACC-62 14.9 µM | A549 14.4 µM | HL-60 2.37 µM | RPMI-8226 2.47 µM | IGROV-1 5.09 µM

COC(=O)CC1C(C)(C)C(=O)C2CC3=C4CC(=O)OC(c5ccoc5)C4(C)CCC3C1(C)C2=O (configuration not stated)
inactive: HOP-92 > 100 µM | SN12C > 100 µM | NCI-H23 > 100 µM | KM12 > 100 µM | SNB-19 > 100 µM | T47D > 100 µM | SK-MEL-2 > 100 µM | A498 > 100 µM | PC-3 > 100 µM | SW-620 > 100 µM | U-251 > 100 µM | HCT-116 > 100 µM | SK-MEL-28 > 100 µM | SNB-75 > 100 µM | LOX IMVI > 100 µM | OVCAR-8 > 100 µM | SK-MEL-5 > 100 µM | Malme-3M > 100 µM | HT-29 > 100 µM | NCI-H522 > 100 µM | DU-145 > 100 µM | COLO 205 > 100 µM | BT-549 > 100 µM | SK-OV-3 > 100 µM | M14 > 100 µM | SF-268 > 100 µM | TK-10 > 100 µM | SF-539 > 100 µM | SF-295 > 100 µM | MDA-N > 100 µM | CCRF-CEM > 100 µM | EKVX > 100 µM | UACC-257 > 100 µM | MOLT-4 > 100 µM | 786-0 > 100 µM | MCF7 > 100 µM | NCI-H460 > 100 µM | NCI/ADR-RES > 100 µM | CAKI-1 > 100 µM | Hs-578T > 100 µM | RXF 393 > 100 µM | ACHN > 100 µM | NCI-H226 > 100 µM | HCC 2998 > 100 µM | HOP-62 > 100 µM | OVCAR-3 > 100 µM | MDA-MB-435 > 100 µM | OVCAR-5 > 100 µM | K562 > 100 µM | MDA-MB-231 > 100 µM | SR > 100 µM | OVCAR-4 > 100 µM | UACC-62 > 100 µM | A549 > 100 µM | HL-60 44.4 µM | RPMI-8226 > 100 µM | IGROV-1 > 100 µM
> 100 µM: HCT-15
